Data reported in patent US7867732B2, “Isolated polypeptide binding to a sugar chain, polynucleotide encoding the polypeptide and use of the polypeptide and polynucleotide” (National University of Corporation Hiroshima University, priority 2005, dated 2011).

How the values were obtained:
BML-17 = experiment: Hemagglutination-inhibition test with BML-17 and trypsin-treated rabbit erythrocytes; assay type: cell-based, Bryopsis maxima; conditions: for Minimum inhibitory concentration: inhibition of BML-17 (agglutination titer 4) agglutination of TRBC; for Inhibition of agglutinating activity of BML-17 (in words): TRBC
Protocol: Hemagglutinating activity was measured using a micro titer method. Twenty-five μl of serially two-fold dilutions of each purified fraction solution adjusted with saline was placed on a micro titer plate. Each diluted solution was supplemented with 25 μl of a 2% suspension of trypsin-treated rabbit erythrocytes and was gently stirred. The mixture was allowed to stand at room temperature for 1.5 hours and agglutination was observed. Agglutination was evaluated with naked eye. Agglutination of 50% or greater percentage of red blood cells was evaluated as positive. Agglutinating activity was given by agglutination titer, i.e., the protein concentration of maximum diluent showing agglutinating activity.
In this Example, trypsin-treated rabbit red blood cells (TRBC) were used as red blood cells. TRBC was prepared as follows. First, 2 ml of blood was collected from the ear of a rabbit kept in laboratory. The blood sample was washed 3 times with about 50 ml of saline, and was supplemented with 50 ml of saline to obtain a 2% rabbit blood cell suspension. The solution was supplemented with 1/10 volume of 0.5% trypsin in saline, and was allowed to stand at 37° C. for 1.5 hours. The trypsin-treated red blood cells were then washed 3 times with saline, and were supplemented with 45 ml of saline to obtain a 2% suspension of trypsin-treated rabbit erythrocytes (or blood cells) (TRBC).
Hemagglutination-inhibition test was performed according to the following procedure. First, each 25 μl of serially two-fold dilutions of sugar solution in saline was placed on a micro titer plate. The concentration of the original solutions of sugars examined was 100 mM for monosaccharides and oligosaccharides, and 2 mg/ml for glycoproteins. Each solution was mixed with 25 μl of BML-17 solution that had been adjusted to an agglutination titer of 4, and allowed to stand for 1.5 hours at room temperature after gentle stirring. Then, 25 μl of TRBC was added, and the mixture was allowed to stand for 2 hours at room temperature to observe hemagglutination inhibitory capability. The presence or absence of hemagglutination inhibitory capability was determined by naked eye. The test was positive when no hemagglutination occurred in about 100% of the red blood cells.
The hemagglutination inhibition test used D-glucose, D-galactose, D-mannose, N-acetyl-D-glucosamine, N-acetyl-D-galactosamine, D-xylose, L-fucose, fructose, lactose, and raffinose as monosaccharides and oligosaccharides. As glycoproteins, mucin (bovine submaxillary gland) and asialomucin, fetuin (type III, calf serum) and asialofetuin, transferrin (human) and asialotransferrin, α1-acid glycoprotein (human) and alialo-α1-acid glycoprotein, and yeast mannan were used.

[1] = system: chicken egg yolk antibody (chicken IgY antibody); experiment: Search for lectins that bind to chicken egg yolk antibody by SPR (Biacore 2000); assay type: binding; conditions: chicken IgY immobilized as ligand
Source text: Assessment was made as to affinity of the different types of lectins and chicken egg yolk antibody (chicken IgY antibody). Briefly, using Biacore 2000 (BIACORE) that employs the principle of surface plasmon resonance method (hereinafter, “SPR method”), chicken egg yolk antibodies (chicken IgY antibodies) were immobilized as ligands on a sensor chip, and measurements were made according to manuals using each type of lectin solution as an analyte. The SPR technique allows for measurement of specific interactions between biomolecules both quickly and quantitatively, without labeling the biomolecules. According to this technique, the ligands are immobilized on a surface of the sensor chip, which is then supplemented with a solution of substance (analyte) that acts on the ligand. Slight changes in mass caused by the binding and dissociation of the molecules are then detected as changes in SPR signals. The mass change is represented by resonance unit (RU). One thousand RU is equivalent to a change in reflection angle of 0.1° caused by resonance, and it means that the analyte has bound to the ligand at 1 ng/mm^2. The surface of the sensor chip is coated with dextran, and the ligands are immobilized primarily via carboxyl groups that have been introduced into the dextran.
Note that, as permitted, the lectins tested as analytes were selected to have different sugar binding specificity. The chicken egg yolk antibody (chicken IgY antibodies) tested as ligands were obtained by purification from egg yolk, using Eggcellent Chicken IgY Purification Kit (Pierce Chem. Co. USA).

[2] = monosaccharides and oligosaccharides

For O=C[C@H](O)[C@@H](O)[C@@H](O)[C@H](O)CO [D-Galactose], the Minimum inhibitory concentration (BML-17; [2]) was “— (No inhibition at 100 mM of mono- or oligosaccharides)”.

O=C[C@H](O)[C@@H](O)[C@H](O)[C@H](O)CO [D-Glucose] was tested, and the Minimum inhibitory concentration (BML-17; [2]) was “— (No inhibition at 100 mM of mono- or oligosaccharides)”.

With O=C[C@H](O)[C@@H](O)[C@H](O)CO [D-Xylose] the Minimum inhibitory concentration (BML-17; [2]) was “— (No inhibition at 100 mM of mono- or oligosaccharides)”.

In the case of O=C(CO)[C@@H](O)[C@H](O)[C@H](O)CO [Fructose], the Minimum inhibitory concentration (BML-17; [2]) is reported as “— (No inhibition at 100 mM of mono- or oligosaccharides)”.

In the case of C[C@H](O)[C@@H](O)[C@@H](O)[C@H](O)C=O [L-Fucose], the Minimum inhibitory concentration (BML-17; [2]) is reported as “— (No inhibition at 100 mM of mono- or oligosaccharides)”.

For OC[C@H]1O[C@@H](O[C@H]2[C@H](O)[C@@H](O)C(O)O[C@@H]2CO)[C@H](O)[C@@H](O)[C@H]1O (stereo partly drawn) [Lactose], the Minimum inhibitory concentration (BML-17; [2]) was “— (No inhibition at 100 mM of mono- or oligosaccharides)”.

For CC(=O)N[C@H]1C(O)O[C@H](CO)[C@H](O)[C@@H]1O (stereo partly drawn) [N-Acetyl-D-galactosamine], the Minimum inhibitory concentration (BML-17; [2]) was “— (No inhibition at 100 mM of mono- or oligosaccharides)”.

With CC(=O)N[C@H]1C(O)O[C@H](CO)[C@@H](O)[C@@H]1O (stereo partly drawn) [N-Acetyl-D-glucosamine] the Minimum inhibitory concentration (BML-17; [2]) was “— (No inhibition at 100 mM of mono- or oligosaccharides)”.

OC[C@H]1O[C@H](OC[C@H]2O[C@H](O[C@]3(CO)O[C@H](CO)[C@@H](O)[C@@H]3O)[C@H](O)[C@@H](O)[C@@H]2O)[C@H](O)[C@@H](O)[C@H]1O [Raffinose] was tested, and the Minimum inhibitory concentration (BML-17; [2]) was “— (No inhibition at 100 mM of mono- or oligosaccharides)”.

With “Asialotransferrin: asialo form of transferrin (human)” the “Inhibition of agglutinating activity of BML-17 (in words)” value (shortened to “Inhibition”) (BML-17) was “inhibition occurred” and the Minimum inhibitory concentration (BML-17; glycoproteins) was 1000 µg/mL.

For Mucin, the “Inhibition” value (BML-17) was “inhibition occurred” and the Minimum inhibitory concentration (BML-17; glycoproteins) was 250 µg/mL.

For “Transferrin: transferrin (human), glycoprotein”, the “Inhibition” value (BML-17) was “inhibition occurred” and the Minimum inhibitory concentration (BML-17; glycoproteins) was 2000 µg/mL.

In the case of “αl-Acid glycoprotein: α1-acid glycoprotein (human)”, the Minimum inhibitory concentration (BML-17; glycoproteins) is reported as “— (No inhibition at 100 mM of mono- or oligosaccharides, or at 2 mg/ml of glycoproteins)”.

B1: Fetuin: fetuin (type III, calf serum) (protein)
chain: IPLDPVAGYKEPACDDPDTEQAALAAVDYINKHLPRGYKHTLNQIDSVKVWPRRPTGEVYDIEIDTLETTCHVLDPTPLANCSVRQQTQHAVEGDCDIHVLKQDGQFSVLFTKCDSSPDSAEDVRKLCPDCPLLAPLNDSRVVHAVEVALATFNAESNGSYLQLVEISRAQFVPLPVSVSVEFAVAATDCIAKEVVDPTKCNLLAEKQYGFCKGSVIQKALGGEDVRVTCTLFQTQPVIPQPQPDGAEAEAPSAVPDAAGPTPSAAGPPVASVVVGPSVVAVPLPLHRAHYDLRHTFSGVASVESSSGEAFHVGKTPIVGQPSIPGGPVRLCPGRIRYFKI
In the case of B1, the “Inhibition” value (BML-17) is reported as “inhibition occurred” and the Minimum inhibitory concentration (BML-17; glycoproteins) is reported as 1000 µg/mL.

B2: Asialofetuin: asialo form of fetuin (protein)
chain: IPLDPVAGYKEPACDDPDTEQAALAAVDYINKHLPRGYKHTLNQIDSVKVWPRRPTGEVYDIEIDTLETTCHVLDPTPLANCSVRQQTQHAVEGDCDIHVLKQDGQFSVLFTKCDSSPDSAEDVRKLCPDCPLLAPLNDSRVVHAVEVALATFNAESNGSYLQLVEISRAQFVPLPVSVSVEFAVAATDCIAKEVVDPTKCNLLAEKQYGFCKGSVIQKALGGEDVRVTCTLFQTQPVIPQPQPDGAEAEAPSAVPDAAGPTPSAAGPPVASVVVGPSVVAVPLPLHRAHYDLRHTFSGVASVESSSGEAFHVGKTPIVGQPSIPGGPVRLCPGRIRYFKI
For B2, the “Inhibition” value (BML-17) was “inhibition occurred” and the Minimum inhibitory concentration (BML-17; glycoproteins) was 500 µg/mL.

B3: UEA-I: Ulex europaeus-derived lectin (protein)
chain: SDDLSFKFKNFSQNGKDLSFQGDASVIETGVLQLNKVGNNLPDETGGIARYIAPIHIWNCNTGEVASFITSFSFFMETSANPKAATDGLTFFLAPPDSPLRRAGGYFGLFEDTKDNDSSYQTVAVEFDTIGSPVNFDDPGFPHIGIDVNRVKSINAERWNKRYGLNNVANVEIIYEASSKTLTASLTYPSDQTSISVTSIVDLKEILPEWVSVGFSGGTYIGRQATHEVLNWYFTSNLINTNS
With B3 the “Binding to chicken egg yolk antibody (in words)” value [1] was “binding to chicken egg yolk antibody (chicken IgY antibodies) occurs”.
